Test results from patent US20050022267A1, “Methods for Agrobacterium-mediated transformation of dandelion” (priority 2003, published 2005).

Experiments:
dandelion leaf explants [1] = test: Effect of phyto-hormones on dandelion regeneration: adventitious shoot formation of leaf explants on seedling media; assay type: cell-based; settings: for number of regenerated shoots per explant / percentage of leaf explants displaying adventitious shoot formation: four weeks
Protocol: Dandelion seeds are surface-sterilized in approximately 70% (volume/volume, v/v) ethanol for 30 sec in the bottle. The ethanol is removed and the seeds are soaked in approximately 1% (v/v) bleach with gentle agitation for about 15 minutes. The bleach is poured off and the […] are rinsed thoroughly about 3-4 times with sterilized distilled water. Seeds are germinated and in vitro cultured in the sterile bottles containing seedling medium (Table 1). Over one month-old seedlings are used as stock plants for leaf and root explants. The leaves and roots of stock plants are placed in a petri plate with droplets of sterile water. Explants of leaves (ca. 0.5 cm in diameter) and of roots (ca. 0.5 cm in length) were excised from dandelion plants. Approximately 15 to 20 explants per plate are positioned with the adaxial surface down onto pre-incubation medium (Table 2). The plates are incubated under mixed white and red lights for about 6 days at about 22° C. […] Parentheses indicate the number of regenerated shoots per explant.

dandelion leaf explants [2] = test: Effect of maltose on shoot regeneration in shoot induction media; assay type: cell-based; settings: 1% maltose (w/v) in shoot induction media
Protocol: Leaf explants derived from dandelion plants were cultured in shoot induction media containing no maltose (w/v) or 1% maltose (w/v) to compare the efficacy of maltose on shoot production.

[3] = isolated from dandelion roots; cited from earlier work
[4] = 6-benzyladenine 0.25 mg/L, α-naphthalene acetic acid 0 mg/L
[5] = 6-benzyladenine 0.25 mg/L, α-naphthalene acetic acid 0.1 mg/L
[6] = 6-benzyladenine 0.25 mg/L, α-naphthalene acetic acid 0.5 mg/L
[7] = 6-benzyladenine 0.25 mg/L, α-naphthalene acetic acid 1.0 mg/L
[8] = 6-benzyladenine 0.25 mg/L, α-naphthalene acetic acid 2.0 mg/L
[9] = 6-benzyladenine 0.5 mg/L, α-naphthalene acetic acid 0 mg/L
[10] = 6-benzyladenine 0.5 mg/L, α-naphthalene acetic acid 0.1 mg/L
[11] = 6-benzyladenine 0.5 mg/L, α-naphthalene acetic acid 0.5 mg/L
[12] = 6-benzyladenine 0.5 mg/L, α-naphthalene acetic acid 1.0 mg/L
[13] = 6-benzyladenine 0.5 mg/L, α-naphthalene acetic acid 2.0 mg/L
[14] = 6-benzyladenine 1.0 mg/L, α-naphthalene acetic acid 0 mg/L
[15] = 6-benzyladenine 1.0 mg/L, α-naphthalene acetic acid 0.1 mg/L
[16] = 6-benzyladenine 1.0 mg/L, α-naphthalene acetic acid 0.5 mg/L
[17] = 6-benzyladenine 1.0 mg/L, α-naphthalene acetic acid 1.0 mg/L
[18] = 6-benzyladenine 1.0 mg/L, α-naphthalene acetic acid 2.0 mg/L
[19] = 6-benzyladenine 2.0 mg/L, α-naphthalene acetic acid 0 mg/L
[20] = 6-benzyladenine 2.0 mg/L, α-naphthalene acetic acid 0.1 mg/L
[21] = 6-benzyladenine 2.0 mg/L, α-naphthalene acetic acid 0.5 mg/L
[22] = 6-benzyladenine 2.0 mg/L, α-naphthalene acetic acid 1.0 mg/L
[23] = 6-benzyladenine 2.0 mg/L, α-naphthalene acetic acid 2.0 mg/L
[24] = kinetin 0.5 mg/L, α-naphthalene acetic acid 0 mg/L
[25] = kinetin 0.5 mg/L, α-naphthalene acetic acid 0.1 mg/L
[26] = kinetin 0.5 mg/L, α-naphthalene acetic acid 0.5 mg/L
[27] = kinetin 0.5 mg/L, α-naphthalene acetic acid 1.0 mg/L
[28] = kinetin 0.5 mg/L, α-naphthalene acetic acid 2.0 mg/L
[29] = kinetin 1.0 mg/L, α-naphthalene acetic acid 0 mg/L
[30] = kinetin 1.0 mg/L, α-naphthalene acetic acid 0.1 mg/L
[31] = kinetin 1.0 mg/L, α-naphthalene acetic acid 0.5 mg/L
[32] = kinetin 1.0 mg/L, α-naphthalene acetic acid 1.0 mg/L
[33] = kinetin 1.0 mg/L, α-naphthalene acetic acid 2.0 mg/L
[34] = kinetin 2.0 mg/L, α-naphthalene acetic acid 0 mg/L
[35] = kinetin 2.0 mg/L, α-naphthalene acetic acid 0.1 mg/L
[36] = kinetin 2.0 mg/L, α-naphthalene acetic acid 0.5 mg/L
[37] = kinetin 2.0 mg/L, α-naphthalene acetic acid 1.0 mg/L
[38] = kinetin 2.0 mg/L, α-naphthalene acetic acid 2.0 mg/L
[39] = kinetin 3.0 mg/L, α-naphthalene acetic acid 0 mg/L
[40] = kinetin 3.0 mg/L, α-naphthalene acetic acid 0.1 mg/L
[41] = kinetin 3.0 mg/L, α-naphthalene acetic acid 0.5 mg/L
[42] = kinetin 3.0 mg/L, α-naphthalene acetic acid 1.0 mg/L
[43] = kinetin 3.0 mg/L, α-naphthalene acetic acid 2.0 mg/L
[44] = α-naphthalene acetic acid 0.1 mg/L, 6-benzyladenine 0 mg/L
[45] = α-naphthalene acetic acid 0.1 mg/L, kinetin 0 mg/L
[46] = α-naphthalene acetic acid 0.5 mg/L, 6-benzyladenine 0 mg/L
[47] = α-naphthalene acetic acid 0.5 mg/L, kinetin 0 mg/L
[48] = α-naphthalene acetic acid 1.0 mg/L, 6-benzyladenine 0 mg/L
[49] = α-naphthalene acetic acid 1.0 mg/L, kinetin 0 mg/L
[50] = α-naphthalene acetic acid 2.0 mg/L, 6-benzyladenine 0 mg/L
[51] = α-naphthalene acetic acid 2.0 mg/L, kinetin 0 mg/L

6-benzyladenine
suitability for shoot regeneration of dandelion (dandelion leaf explants [1]; 1 or 2 mg/l 6-benzyladenine and 0.1 mg/l α-naphthalene acetic acid): most suitable for shoot regeneration | number of regenerated shoots per explant (dandelion leaf explants [1]; [4]): (21.2) shoots per explant | percentage of leaf explants displaying adventitious shoot formation (dandelion leaf explants [1]; [4]): 60.0% | number of regenerated shoots per explant (dandelion leaf explants [1]; [5]): (16.3) shoots per explant | percentage of leaf explants displaying adventitious shoot formation (dandelion leaf explants [1]; [5]): 63.0% | number of regenerated shoots per explant (dandelion leaf explants [1]; [6]): (12.0) shoots per explant | percentage of leaf explants displaying adventitious shoot formation (dandelion leaf explants [1]; [6]): 78.0% | number of regenerated shoots per explant (dandelion leaf explants [1]; [7]): (24.5) shoots per explant | percentage of leaf explants displaying adventitious shoot formation (dandelion leaf explants [1]; [7]): 97.0% | number of regenerated shoots per explant (dandelion leaf explants [1]; [8]): (3.6) shoots per explant | percentage of leaf explants displaying adventitious shoot formation (dandelion leaf explants [1]; [8]): 90.0% | number of regenerated shoots per explant (dandelion leaf explants [1]; [9]): (17.4) shoots per explant | percentage of leaf explants displaying adventitious shoot formation (dandelion leaf explants [1]; [9]): 75.0% | number of regenerated shoots per explant (dandelion leaf explants [1]; [10]): (23.8) shoots per explant | percentage of leaf explants displaying adventitious shoot formation (dandelion leaf explants [1]; [10]): 99.9% | number of regenerated shoots per explant (dandelion leaf explants [1]; [11]): (23.7) shoots per explant | percentage of leaf explants displaying adventitious shoot formation (dandelion leaf explants [1]; [11]): 99.9% | number of regenerated shoots per explant (dandelion leaf explants [1]; [12]): (21.7) shoots per explant | percentage of leaf explants displaying adventitious shoot formation (dandelion leaf explants [1]; [12]): 88.0% | number of regenerated shoots per explant (dandelion leaf explants [1]; [13]): (3.2) shoots per explant | percentage of leaf explants displaying adventitious shoot formation (dandelion leaf explants [1]; [13]): 40.0% | number of regenerated shoots per explant (dandelion leaf explants [1]; [14]): (17.4) shoots per explant | percentage of leaf explants displaying adventitious shoot formation (dandelion leaf explants [1]; [14]): 85.0% | number of regenerated shoots per explant (dandelion leaf explants [1]; [15]): (25.1) shoots per explant | percentage of leaf explants displaying adventitious shoot formation (dandelion leaf explants [1]; [15]): 99.9% | number of regenerated shoots per explant (dandelion leaf explants [1]; [16]): (20.4) shoots per explant | percentage of leaf explants displaying adventitious shoot formation (dandelion leaf explants [1]; [16]): 99.9% | number of regenerated shoots per explant (dandelion leaf explants [1]; [17]): (13.1) shoots per explant | percentage of leaf explants displaying adventitious shoot formation (dandelion leaf explants [1]; [17]): 83.0% | number of regenerated shoots per explant (dandelion leaf explants [1]; [18]): (5.9) shoots per explant | percentage of leaf explants displaying adventitious shoot formation (dandelion leaf explants [1]; [18]): 99.9% | number of regenerated shoots per explant (dandelion leaf explants [1]; [19]): (16.0) shoots per explant | percentage of leaf explants displaying adventitious shoot formation (dandelion leaf explants [1]; [19]): 99.9% | number of regenerated shoots per explant (dandelion leaf explants [1]; [20]): (17.4) shoots per explant | percentage of leaf explants displaying adventitious shoot formation (dandelion leaf explants [1]; [20]): 99.9% | number of regenerated shoots per explant (dandelion leaf explants [1]; [21]): (20.7) shoots per explant | percentage of leaf explants displaying adventitious shoot formation (dandelion leaf explants [1]; [21]): 99.9% | number of regenerated shoots per explant (dandelion leaf explants [1]; [22]): (8.5) shoots per explant | percentage of leaf explants displaying adventitious shoot formation (dandelion leaf explants [1]; [22]): 99.9% | number of regenerated shoots per explant (dandelion leaf explants [1]; [23]): (5.4) shoots per explant | percentage of leaf explants displaying adventitious shoot formation (dandelion leaf explants [1]; [23]): 99.9%

OC[C@H]1O[C@H](O[C@H]2[C@H](O)[C@@H](O)C(O)O[C@@H]2CO)[C@H](O)[C@@H](O)[C@@H]1O (mixture of isomers) [Maltose, maltose]
shoot production in comparison to no maltose (dandelion leaf explants [2]): improves shoot production | # of Shoots per Explants (dandelion leaf explants [2]; leaf explants): 25

c1coc(CNc2ncnc3[nH]cnc23)c1 [Kinetin, kinetin]
suitability for dandelion shoot regeneration (dandelion leaf explants [1]; 0.05 mg/l α-naphthalene acetic acid and 1.0 mg/l kinetin or 0.1 mg/l α-naphthalene acetic acid and 2.0 mg/l kinetin): also suitable for dandelion shoot regeneration | number of regenerated shoots per explant (dandelion leaf explants [1]; [24]): (24.8) shoots per explant | percentage of leaf explants displaying adventitious shoot formation (dandelion leaf explants [1]; [24]): 99.9% | number of regenerated shoots per explant (dandelion leaf explants [1]; [25]): (19.8) shoots per explant | percentage of leaf explants displaying adventitious shoot formation (dandelion leaf explants [1]; [25]): 96.7% | number of regenerated shoots per explant (dandelion leaf explants [1]; [26]): (16.9) shoots per explant | percentage of leaf explants displaying adventitious shoot formation (dandelion leaf explants [1]; [26]): 99.9% | number of regenerated shoots per explant (dandelion leaf explants [1]; [27]): (8.1) shoots per explant | percentage of leaf explants displaying adventitious shoot formation (dandelion leaf explants [1]; [27]): 99.9% | number of regenerated shoots per explant (dandelion leaf explants [1]; [28]): (5.8) shoots per explant | percentage of leaf explants displaying adventitious shoot formation (dandelion leaf explants [1]; [28]): 99.9% | number of regenerated shoots per explant (dandelion leaf explants [1]; [29]): (22.7) shoots per explant | percentage of leaf explants displaying adventitious shoot formation (dandelion leaf explants [1]; [29]): 99.9% | number of regenerated shoots per explant (dandelion leaf explants [1]; [30]): (23.4) shoots per explant | percentage of leaf explants displaying adventitious shoot formation (dandelion leaf explants [1]; [30]): 99.9% | number of regenerated shoots per explant (dandelion leaf explants [1]; [31]): (16.8) shoots per explant | percentage of leaf explants displaying adventitious shoot formation (dandelion leaf explants [1]; [31]): 99.9% | number of regenerated shoots per explant (dandelion leaf explants [1]; [32]): (6.7) shoots per explant | percentage of leaf explants displaying adventitious shoot formation (dandelion leaf explants [1]; [32]): 99.9% | number of regenerated shoots per explant (dandelion leaf explants [1]; [33]): (9.8) shoots per explant | percentage of leaf explants displaying adventitious shoot formation (dandelion leaf explants [1]; [33]): 99.9% | number of regenerated shoots per explant (dandelion leaf explants [1]; [34]): (21.9) shoots per explant | percentage of leaf explants displaying adventitious shoot formation (dandelion leaf explants [1]; [34]): 95.0% | number of regenerated shoots per explant (dandelion leaf explants [1]; [35]): (23.6) shoots per explant | percentage of leaf explants displaying adventitious shoot formation (dandelion leaf explants [1]; [35]): 99.9% | number of regenerated shoots per explant (dandelion leaf explants [1]; [36]): (20.3) shoots per explant | percentage of leaf explants displaying adventitious shoot formation (dandelion leaf explants [1]; [36]): 99.9% | number of regenerated shoots per explant (dandelion leaf explants [1]; [37]): (13.4) shoots per explant | percentage of leaf explants displaying adventitious shoot formation (dandelion leaf explants [1]; [37]): 95.5% | number of regenerated shoots per explant (dandelion leaf explants [1]; [38]): (7.3) shoots per explant | percentage of leaf explants displaying adventitious shoot formation (dandelion leaf explants [1]; [38]): 96.2% | number of regenerated shoots per explant (dandelion leaf explants [1]; [39]): (14.7) shoots per explant | percentage of leaf explants displaying adventitious shoot formation (dandelion leaf explants [1]; [39]): 99.9% | number of regenerated shoots per explant (dandelion leaf explants [1]; [40]): (19.3) shoots per explant | percentage of leaf explants displaying adventitious shoot formation (dandelion leaf explants [1]; [40]): 99.9% | number of regenerated shoots per explant (dandelion leaf explants [1]; [41]): (25.5) shoots per explant | percentage of leaf explants displaying adventitious shoot formation (dandelion leaf explants [1]; [41]): 99.9% | number of regenerated shoots per explant (dandelion leaf explants [1]; [42]): (8.9) shoots per explant | percentage of leaf explants displaying adventitious shoot formation (dandelion leaf explants [1]; [42]): 99.9% | number of regenerated shoots per explant (dandelion leaf explants [1]; [43]): (8.1) shoots per explant | percentage of leaf explants displaying adventitious shoot formation (dandelion leaf explants [1]; [43]): 99.9%

C=C1CC[C@]2(C)CC[C@]3(C)[C@H](CC[C@@H]4[C@@]5(C)CC[C@H](O)C(C)(C)[C@@H]5CC[C@]43C)[C@H]2[C@@H]1C [taraxasterol]
anti-tumor-promoting activity [3]: potent anti-tumor-promoting activity

CC1(C)CC[C@]2(C)CC=C3[C@]4(C)CC[C@H]5C(C)(C)[C@@H](O)CC[C@]5(C)[C@H]4CC[C@@]3(C)[C@@H]2C1 [taraxerol]
anti-tumor-promoting activity [3]: potent anti-tumor-promoting activity

O=C(O)Cc1cccc2ccccc12 [α-Naphthalene acetic acid, α-naphthalene acetic acid]
number of regenerated shoots per explant (dandelion leaf explants [1]; [44]): (0.0) shoots per explant | percentage of leaf explants displaying adventitious shoot formation (dandelion leaf explants [1]; [44]): 0.0% | number of regenerated shoots per explant (dandelion leaf explants [1]; [45]): (0.0) shoots per explant | percentage of leaf explants displaying adventitious shoot formation (dandelion leaf explants [1]; [45]): 0.0% | number of regenerated shoots per explant (dandelion leaf explants [1]; [46]): (2.0) shoots per explant | percentage of leaf explants displaying adventitious shoot formation (dandelion leaf explants [1]; [46]): 20.0% | number of regenerated shoots per explant (dandelion leaf explants [1]; [47]): (0.0) shoots per explant | percentage of leaf explants displaying adventitious shoot formation (dandelion leaf explants [1]; [47]): 0.0% | number of regenerated shoots per explant (dandelion leaf explants [1]; [48]): (0.0) shoots per explant | percentage of leaf explants displaying adventitious shoot formation (dandelion leaf explants [1]; [48]): 0.0% | number of regenerated shoots per explant (dandelion leaf explants [1]; [49]): (0.0) shoots per explant | percentage of leaf explants displaying adventitious shoot formation (dandelion leaf explants [1]; [49]): 5.0% | number of regenerated shoots per explant (dandelion leaf explants [1]; [50]): (0.0) shoots per explant | percentage of leaf explants displaying adventitious shoot formation (dandelion leaf explants [1]; [50]): 0.0% | number of regenerated shoots per explant (dandelion leaf explants [1]; [51]): (0.0) shoots per explant | percentage of leaf explants displaying adventitious shoot formation (dandelion leaf explants [1]; [51]): 0.0%
